Reference: US11440932B2, “Surfactant compounds-clips for extraction and stabilization in solution of membrane proteins” (CENTRE NATIONAL DE LA RECHERCHE SCIENTIFIQUE, priority 2017, dated 2022)

Target: T1, BmrA (Bacillus subtilis, UniProt O06967)
T1 construct: His tag; made in house; host or cells: E. coli C41(DE3)
Test: Size exclusion chromatography of BmrA after detergent exchange
Procedure: The membrane fraction was extracted and purified in DDM by Ni-NTA metal affinity and Superdex 200 size exclusion, before being reloaded on Ni-NTA in order to exchange the DDM either with itself or with the compound 3.7c. Each pool was subsequently loaded onto a 3 ml Superdex S200 5/150 size exclusion column and eluted in the presence of 2 CMC of the same detergent, as indicated. The proteins are detected by absorbance at 280 nm.
The capacity of the compounds of the invention to maintain the membrane proteins in a native state was exemplified with the compound 3.7c of the invention, monitored by size exclusion chromatography and compared to the reference detergent DDM.
Procedure: BmrA was extracted in DDM and purified by Ni-NTA affinity chromatography as described in example 13, then loaded onto a Superdex 200 10/300 size exclusion column and eluted with 50 mM Hepes-HCl pH 8.0, 100 mM NaCl, 0.4 mM DDM (2×CMC). The fractions containing BmrA were pooled and separated into several aliquots (˜100 μg) kept at 4° C. One aliquot was subsequently reloaded onto an affinity column containing 1 ml of resin. The DDM was then exchanged against 10 volumes of Hepes-NaCl buffer containing either 2 CMC of DDM (control experiment) or 2 CMC of compound 3.7c (2 mM). BmrA was subsequently eluted in the respective buffers with 100 mM of imidazole added. The fractions containing the proteins were combined and concentrated on 50 kDa amicon (regenerated cellulose) to 50 μl, and were then deposited on a 3 ml Superdex 200 5/150 size exclusion column, equilibrated in 50 mM Hepes-HCl pH 8.0, 100 mM NaCl, and 2 CMC of DDM (0.4 mM) or 3.7c (2 mM). The elution was subsequently carried out at 0.3 ml/min in the respective buffers and the BmrA detected at 280 nm.

T1 sequence (O06967 whole entry): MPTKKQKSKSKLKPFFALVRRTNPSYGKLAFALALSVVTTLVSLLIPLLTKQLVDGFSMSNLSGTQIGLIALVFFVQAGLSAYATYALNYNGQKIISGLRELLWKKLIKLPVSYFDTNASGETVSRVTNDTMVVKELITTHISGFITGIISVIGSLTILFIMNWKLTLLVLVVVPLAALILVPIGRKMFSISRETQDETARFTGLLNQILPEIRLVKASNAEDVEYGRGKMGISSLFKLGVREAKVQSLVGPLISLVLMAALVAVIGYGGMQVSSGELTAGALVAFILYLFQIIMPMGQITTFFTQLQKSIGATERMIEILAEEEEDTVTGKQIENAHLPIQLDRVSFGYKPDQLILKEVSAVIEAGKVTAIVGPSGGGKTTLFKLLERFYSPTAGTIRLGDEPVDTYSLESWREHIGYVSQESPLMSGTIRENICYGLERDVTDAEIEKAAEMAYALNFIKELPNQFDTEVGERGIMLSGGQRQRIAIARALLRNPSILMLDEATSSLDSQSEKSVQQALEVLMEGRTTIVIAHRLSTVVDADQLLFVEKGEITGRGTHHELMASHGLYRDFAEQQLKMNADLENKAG

For CCCCCCCCCCCCCC(=O)N[C@@H](COCc1cn(CCO[C@@H]2OC(CO)[C@@H](O)C(O)C2O)nn1)C(=O)N[C@H](CCC(=O)O)C(=O)O (some centres unmarked) [Compound 3.7c], the “elution volume of BmrA” value (Superdex 200 5/150, 2 CMC of detergent, 0.3 ml/min) was ~1.6 mL and the “oligomerization state of BmrA” value (after exchange of DDM, 2 CMC (2 mM)) was “conserves the native oligomerization state”.
